Columns and labels:
[1] = system: phenol-induced cervicitis model in rats; assay: Phenol-induced cervicitis model in rats; format: in vivo, SD rats
Method: • Blank Control Group (untreated) (N=5+2 rats) • Cervicitis Model Group (vehicle treatment: 20% DMA+65% PEG400+15% H2O) (N=8+2 rats) • Cervicitis Model+Positive Control Drug Group (Jieeryin lotion (1:5 dilution), 2 times/day, for 7 consecutive days) (N=8 rats) • Cervicitis Model+Low-Dose MDI-1228 Compound Lotion Group (dose: 3 mg/kg/time, 2 times/day, for 7 consecutive days) (N=8 rats) • Cervicitis Model+Medium-Dose MDI-1228 Compound Lotion Group (dose: 10 mg/kg/time, 2 times/day, for 7 consecutive days) (N=8 rats) • Cervicitis Model+High-Dose MDI-1228 Compound Lotion Group (dose: 30 mg/kg/time, 2 times/day, for 7 consecutive days) (N=8 animals) • Experimental Environment: Temperature 20° C.-26° C., humidity 40%-70%.
SD rats were acclimated for one week. After anesthesia with isoflurane, the rats were fixed in a supine position on the operation table with their limbs secured. A 1 mL syringe with a blunt needle was inserted approximately 1 cm into the rat's vagina, and 0.1 mL of 25% phenol slurry was slowly injected. The vaginal opening was immediately plugged with a sterile cotton ball, and the rat was kept in a head-down and tail-high position for 20 minutes. The injection was performed every 2 days, for a total of 3 times. The vaginal opening of the rats was observed, and the model was considered successful if there was white secretion, vaginal congestion, and swelling.
The successfully modelled rats were randomly divided into 6 groups. Animals in each group were treated according to their group assignment. The blank group (untreated) received no treatment. The positive control group was administrated with Jieeryin lotion (1:5 dilution) for vaginal irrigation twice a day, for 7 consecutive days. The low, medium, and high-dose MDI-1228 compound lotions were used for vaginal irrigation twice a day, for 7 consecutive days. The model group was given an equal amount of vehicle treatment, with the same way and duration as the test drug groups.
Clinical Symptoms Observation: The general condition of the rats (activity, diet, mental state) was continuously observed, and the rats were weighted before and after administration. Daily observations and recordings were made of changes in the local area and secretions of the rat's vulva, whether the vaginal opening is dry, and whether there is congestion, swelling in the vulva and vaginal mucosa, and whether there is vaginal fluid blood. Scoring was conducted according to the following table.
Organ Weight and Organ Index Calculation: After the last administration, the rats were sacrificed the next day, and the uterus was removed, with fat tissue and mesentery dissected away, and the weight of the cervix (from the vaginal opening to the bifurcation of the double uterus) and the liver and spleen were measured to calculate the organ index.
Pathological Detection: ELISA detection for serum markers IL-4, IL-6, IL-1β, TNF-α; ELISA detection for plasma CP; biochemical detection for MDA and T-SOD in cervical tissue.
HE Staining: Tissue samples from animal vaginal, cervical, and uterine were excised, fixed in 4% paraformaldehyde, dehydrated, embedded in paraffin, and sectioned and HE stained for observation of histopathological morphology changes. The reagents and instruments required for HE staining included: Hematoxylin staining solution (AR 11800-1, BOSTER); Eosin staining solution (ARl1800-2, BOSTER); Ultra-clean advanced mounting medium (YZB, BASO); Scott's blueing solution (G1865, Solarbio), etc. Medication refrigerator (BYC-310, Shandong Bokai Biotech); Microscope (CX41 OLYMPUS); Microtome (BQ-318D, Berne); Electric heating blast drying oven (DHG-9070A. Hengke Scientific Instrument Co., Ltd.). The taken tissue was rinsed with running water for several hours, dehydrated through a series of ethanol solutions (70%, 80%, 90%), and then treated with a mixture of pure alcohol and xylene at a ratio of 1:1 for 15 minutes, followed by xylene I for 15 minutes and xylene II for 15 minutes (until transparent). […]

[2] = system: adipocytes; assay: Lipolysis in vitro in adipocytes; format: cell-based, C57BL/6 mouse; settings: 5 μM
Method: Newly extracted neonatal C57BL/6 mouse skin fibroblasts (specific operational steps can be found in the literature: Cell Reports (2023)/doi: 10.1016/j.celrep.2023.112647) were plated and cultured in petri dishes until the cell density reached the highest and contact inhibition. Differentiation medium (DMEM+10% FBS+1× antibiotic; specific formula can be found in the literature: Cell Reports (2023)/doi: 10.1016/j.celrep.2023.112647) was then added to induce the generation of new adipocytes. […] The control group received an equal volume of DMSO. The transformation of adipocytes was observed using a Leica inverted phase contrast microscope.

[3] = 30 mg/kg/time, 2 times/day, 7 days
[4] = MDI-1228 at various doses (3, 10, 30 mg/kg)

CCc1cc(O)c(F)cc1-c1ccc2c(-c3nc4c([nH]3)CN(C(=O)N3CC[C@H](O)C3)C4)n[nH]c2c1 [MDI-1228, (S)-(2-(6-(2-ethyl-5-fluoro-4-hydroxyphenyl)-1H-indazol-3-yl)-4,6-dihydropyrrolo[3,4-d]imidazol-5-(1H)-yl)(3-hydroxylpyrrolidin-1-yl)ketone]
Vaginal, cervical and uterine tissue HE staining ([1]; 3 mg/kg/time, 2 times/day, 7 days): still showed significant inflammatory cell infiltration in the entire tissue structure | Vaginal, cervical and uterine tissue HE staining ([1]; 10 mg/kg/time, 2 times/day, 7 days): marked reduction in inflammatory cells | Comprehensive score of cervicitis ([1]; 30 mg/kg/time vaginal irrigation, 2 times/day, 7 days, vs. model group): significantly reducing the comprehensive score of cervicitis | Cervical index [1, 3]: significantly reduced | Reduction of area under the continuous scoring curve, edema score [1, 3]: 19.61% | Reduction of area under the continuous scoring curve, erythema score [1, 3]: 29.99% | Reduction of area under the continuous scoring curve, secretion score [1, 3]: 21.05% | Reduction of area under the continuous scoring curve, vulvar inflammation score [1, 3]: 23.42% | Vaginal, cervical and uterine tissue HE staining [1, 3]: showing the best effect | Conditions of erythema, edema, and secretion [1, 4]: can improve the conditions of erythema, edema, and secretion | Levels of inflammatory factors [1, 4]: decrease the levels of inflammatory factors IL-10, IL-4, IL-6, and TNF-α | Lipolysis of differentiated mature adipocytes (phase contrast images) [2]: promotes the lipolysis of adipocytes into smaller lipid droplets

Reference: patent US20250387388A1, “COMPOUND AS TRK INHIBITOR AND/OR RET INHIBITOR AND USE THEREOF” (Medinno Pharmaceutical Technology (Zhuhai) Co., Ltd., priority 2022, published 2025)
